Legend:
Assay type in all cases: nucleic-acid assay
Hairpin ribozyme RNA [1] = assay: Binding affinity to double helical RNA hairpin HRP1 in sodium acetate buffer at pH 5.5
Hairpin ribozyme RNA [2] = assay: Binding affinity to double helical RNA hairpin HRP2 in sodium acetate buffer at pH 5.5
Hairpin ribozyme RNA [3] = assay: Binding affinity to double helical RNA hairpin HRP3 in sodium acetate buffer at pH 5.5
Hairpin ribozyme RNA [4] = assay: Binding affinity to double helical RNA hairpin HRP4 in sodium acetate buffer at pH 5.5

Row | Compound | Ka (Hairpin ribozyme RNA [1]) | Ka (Hairpin ribozyme RNA [2]) | Ka (Hairpin ribozyme RNA [3]) | Ka (Hairpin ribozyme RNA [4])
1 | Cc1cn(CC(=O)N(CCNC(=O)CN(CCNC(=O)CN(CCNC(=O)CN(CCNC(=O)CN(CCNC(=O)[C@@H](N)CCCCN)C(=O)Cn2ccc(N)nc2=O)C(=O)Cn2cc(C)c(=O)[nH]c2=O)C(=O)Cn2ccc(N)nc2=O)C(=O)Cn2ccc(N)nc2=O)CC(=O)NCCN(CC(N)=O)C(=O)Cn2ccc(N)nc2=O)c(=O)[nH]c1=O | 84 ×10⁶ /M | 0.4 ×10⁶ /M | 0.5 ×10⁶ /M | 0.2 ×10⁶ /M
2 | Cc1cn(CC(=O)N(CCNC(=O)CN(CCNC(=O)CN(CCNC(=O)CN(CCNC(=O)CN(CCNC(=O)[C@@H](N)CCCCN)C(=O)Cn2ccc(N)nc2=O)C(=O)Cn2cc(C)c(=O)[nH]c2=O)C(=O)Cn2ccc(N)nc2=O)C(=O)Cn2cc(C)c(=O)[nH]c2=O)CC(=O)NCCN(CC(N)=O)C(=O)Cn2ccc(N)nc2=O)c(=O)[nH]c1=O | 2.7 ×10⁶ /M | 47 ×10⁶ /M | 0.5 ×10⁶ /M | 0.02 ×10⁶ /M

Second part, the molecule after the results:

Row | Ka (Hairpin ribozyme RNA [1]) | Ka (Hairpin ribozyme RNA [2]) | Ka (Hairpin ribozyme RNA [3]) | Ka (Hairpin ribozyme RNA [4]) | Compound
3 | 1.5 ×10⁶ /M | 0.4 ×10⁶ /M | 0.2 ×10⁶ /M | 0.09 ×10⁶ /M | Cc1cn(CC(=O)N(CCNC(=O)CN(CCNC(=O)CN(CCNC(=O)CN(CCNC(=O)CN(CCNC(=O)[C@@H](N)CCCCN)C(=O)Cn2ccc(N)nc2=O)C(=O)Cn2cc(C)c(=O)[nH]c2=O)C(=O)Cn2ccc(N)nc2=O)C(=O)Cn2cnc3nc(N)[nH]c(=O)c32)CC(=O)NCCN(CC(N)=O)C(=O)Cn2ccc(N)nc2=O)c(=O)[nH]c1=O
4 | 6 ×10⁶ /M | 1.6 ×10⁶ /M | 0.7 ×10⁶ /M | 0.05 ×10⁶ /M | Cc1cn(CC(=O)N(CCNC(=O)CN(CCNC(=O)CN(CCNC(=O)CN(CCNC(=O)CN(CCNC(=O)[C@@H](N)CCCCN)C(=O)Cn2ccc(N)nc2=O)C(=O)Cn2cc(C)c(=O)[nH]c2=O)C(=O)Cn2ccc(N)nc2=O)C(=O)Cn2cnc3ncnc(N)c32)CC(=O)NCCN(CC(N)=O)C(=O)Cn2ccc(N)nc2=O)c(=O)[nH]c1=O
5 | 0.51 ×10⁶ /M | 0.82 ×10⁶ /M | 1.01 ×10⁶ /M | 0.77 ×10⁶ /M | Cc1cn(CC(=O)N(CCNC(=O)CN(CCNC(=O)CN(CCNC(=O)CN(CCNC(=O)[C@@H](N)CCCCN)C(=O)Cn2ccc(N)nc2=O)C(=O)Cn2cc(C)c(=O)[nH]c2=O)C(=O)Cn2ccc(N)nc2=O)CC(=O)NCCN(CC(=O)NCCN(CC(N)=O)C(=O)Cn2ccc(N)nc2=O)C(=O)Cn2cc(C)c(=O)[nH]c2=O)c(N)nc1=O

From ChEMBL document CHEMBL1759876, “PNA containing isocytidine nucleobase: synthesis and recognition of double helical RNA” (Bioorg Med Chem Lett, 2011)
